Results reported in patent publication US11066421B1, “Synthetic cinchona alkaloids against cancer” (Ares Pharmaceuticals, LLC, priority 2021, dated 2021).

Experiments:
NALM-6 = assay: MTT cytotoxicity assay, NALM-6; assay type: cell-based, human; details: 48 h, read-out: IC50 against NALM-6
Procedure: (§1) Human B-lineage acute lymphoblastic leukemia (ALL) cell line NALM-6 and T-lineage ALL/lymphoma cell line MOLT-3 were obtained from American Type Culture Collection (Manassas, Va.). Cell lines were propagated in RPMI 1640 supplemented with 10% FCS, 4 mM glutamine, 100 units/ml penicillin G, and […] streptomycin sulfate. All tissue culture reagents were obtained from Life Technologies Inc. (Life Technologies, Inc., Gaithersburg, Md.). Cell lines were cultivated for a minimum of two passages after thawing prior to experimentation.
(§2) The cytotoxicity of the compounds were tested against human ALL cell lines using MTT assays (Roche Molecular Biochemicals, Indianapolis, Ind.), as described previously R. K. Narla et al., 1998, Clin Cancer Res 4:1405-14). Briefly, exponentially growing tumor cells were seeded into a 96-well plate at a density of 4×10^4 cells/well and incubated in medium containing the cinchona alkaloid compounds at concentrations ranging from 0.7 to 100 μM for 48 h at 37° C. in a humidified 5% CO2 atmosphere. To each well, 10 μL of MTT (final concentration, 0.5 mg/ml) was added, and the plates were incubated at 37° C. for 4 h to allow MTT to form formazan crystals by reacting with metabolically active cells. The formazan crystals were solubilized overnight at 37° C. in a solution containing 10% SDS and 0.01 M HCl. The absorbance of each well was measured in a microplate reader (Labsystems) at 540 nm and a reference wavelength of 690 nm. To translate the A540 values into the number of live cells in each well, the A540 values were compared to those on standard A540 versus cell number curves generated for each cell line. The percentage of survival was calculated using the formula: % survival=[Live cell number (test)/Live cell number (control)]×100. The IC50 values were calculated by nonlinear regression analysis using the graphed Prism Software version 2.0 (GraphPad Software, Inc., San Diego, Calif.).

MOLT-3 = assay: MTT cytotoxicity assay, MOLT-3; assay type: cell-based, human; details: 48 h, read-out: IC50 against MOLT-3
Procedure: as §1, §2

[1] = system: Lewis Lung Carcinoma Cells (LL2); assay: Syngeneic mouse model of K-Ras mutant NSCLC; assay type: in vivo
Procedure: Lewis Lung Carcinoma Cells (LL2) were purchased from ATCC. These murine NSCLC cells derived from C57BL/6 mice have a heterozygous Kras^G12C mutation (H. Y. Li et al., 2017, Cancer Immunol. Res. 5:767-77; B. Deskin et al., 2020, Translational Oncol. 13:135-45). Eight-9 weeks old, male C57/BL6 mice were inoculated with 1×10^6 LL2 cells in 200 μL PBS that were injected subcutaneously in the right flank. Treatments were initiated immediately after inoculation with LL/2 cells. Control mice were treated with intraperitoneal injections of 50 μL vehicle (DMSO), whereas test mice were treated with either AP-1 or AP-8 at the specified dose levels. Treatments were administered twice daily, 5 days per week for a total of 2 weeks. The clinical predictive value of this mouse model is well established (Kellar A, Egan C, Morris D. Preclinical Murine Models for Lung Cancer: Clinical Trial Applications. Biomed Research International Volume 2015|Article ID 621324|https://doi.org/10.1155/2015/621324).
In the 1st experiment, mice were treated twice daily with intraperitoneal injections of vehicle (50 μL DMSO) (N=10) or AP-1 (125 μg˜5 mg/kg in 50 μL DMSO) (N=7) according to a 5 days on 2 days off weekly schedule for 4 weeks. Mice were monitored daily until tumors became visible on and tumor growth rates were compared between day 16 and day 20 by measuring the size of the tumors with a caliper in three dimensions. Tumor size was expressed as tumor volume in cubic millimeters (mm3). Tumor volumes were calculated using the formula for the volume of a prolate spheroid, V=4/3×3.14×length/2×width/2×depth/2. […] The depicted Whisker plots represent the median and values (Min to Max. Shown all points) for the tumor volume on day 16 (FIG. 11A), day 18 (FIG. 11 FIG. 11B) and day 20 (C), and fold-growth in 48 hours (FIG. 11D; day 18 size: day 16 size) measured in tumors from mice in each group. […] Statistical significance between the two groups is shown by the depicted p-values above the plots were computed using an independent samples T-test.
Similarly, in the 2nd experiment, C57BL/6 mice were inoculated subcutaneously with LL2 cells (1×10^6/inoculum, volume: 200 μL) in the right flank. Mice were treated twice daily with intraperitoneal injections of vehicle (50 μL DMSO) (N=10) or AP-1 (100 μg˜4 mg/kg in 50 μL DMSO) (N=20) according to a 5 days on 2 days off weekly schedule for 2 weeks. Mice were monitored daily until tumors became visible on day 10. Tumor growth was assessed on day 10 and day 14 by measuring the size of the tumors with a caliper in three dimensions. Tumor size was expressed as tumor volume in cubic millimeters (mm^3). Tumor volumes were calculated using the formula for the volume of a prolate spheroid, V=4/3×3.14×length/2×width/2×depth/2. […]
In the 3rd experiment, mice were treated twice daily with intraperitoneal injections of vehicle (50 μL DMSO) (N=10) or AP-1 (125 μg˜5 mg/kg in 50 μL DMSO) (N=18) according to a 5 days on 2 days off weekly schedule for 4 weeks. Mice were monitored daily until tumors became visible on day 13. Tumor growth was re-assessed every other day between day 13 and day 29 by measuring the size of the tumors with a caliper in three dimensions. Tumor size was expressed as tumor volume in cubic millimeters (mm^3). Tumor volumes were calculated using the formula for the volume of a prolate spheroid, V=4/3×3.14×length/2×width/2×depth/2. […]

2,4,6-Tri (9-O-dihydrocinchoninyl)pyrimidine [AP-5]
IC50 (NALM-6): 1.7 µM

C=CC1CN2CCC1CC2C(Oc1cc(OC(c2ccnc3ccccc23)C2CC3CCN2CC3C=C)nc(OC(c2ccnc3ccccc23)C2CC3CCN2CC3C=C)n1)c1ccnc2ccccc12 (stereo not shown) [AP-1, 2,4,6-Tri(9-O-cinchoninyl)pyrimidine]
IC50 (NALM-6): 3.4 µM | IC50 (MOLT-3): 6.7 µM | fold-growth in 48 hours (day 18 size: day 16 size) ([1]; 1st experiment, 5 mg/kg i.p. twice daily): significantly reduced the rapid growth rate of the LL2 tumors | average tumor volume versus vehicle ([1]; 1st experiment, 5 mg/kg i.p. twice daily, day 16 to day 20): remained significantly smaller than the average tumor volume in vehicle-treated control mice | average tumor volume versus vehicle ([1]; 2nd experiment, 4 mg/kg i.p. twice daily, day 10 and day 14): remained significantly smaller than the average tumor volume in vehicle-treated control mice | average tumor volume versus vehicle ([1]; 3rd experiment, 5 mg/kg i.p. twice daily, day 13 to day 29): remained significantly smaller than the average tumor volume in vehicle-treated control mice

CCC1CN2CCC1CC2C(Oc1cc(OC(c2ccnc3ccc(OC)cc23)C2CC3CCN2CC3CC)nc(OC(c2ccnc3ccc(OC)cc23)C2CC3CCN2CC3CC)n1)c1ccnc2ccc(OC)cc12 (stereo not shown) [AP-8, 2,4,6-Tri (9-O-dihydroquinidinyl)pyrimidine]
IC50 (NALM-6): 3.7 µM | IC50 (MOLT-3): 5.2 µM | average tumor volume versus vehicle ([1]; 2 mg/kg i.p. twice daily, day 14 to day 25): remained significantly smaller than the average tumor volume in vehicle-treated control mice
